# How the values were obtained:
# Test in all cases: relative viability (nuclei count vs DMSO), 5 days (fraction); higher = more cells survive
# Sorafenib + Palbociclib = compound: CNC(=O)c1cc(Oc2ccc(NC(=O)Nc3ccc(Cl)c(C(F)(F)F)c3)cc2)ccn1 [Sorafenib] + CC(=O)c1c(C)c2cnc(Nc3ccc(N4CCNCC4)cn3)nc2n(C2CCCC2)c1=O [Palbociclib] (partner 0.5 µM)
# Method in brief: (§1)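 One day after seeding in 1536-well plates, lung cancer cell lines were dosed by pin tool. Dosing was either single-drug or a fixed anchor-drug dose plus five library-drug doses (not always all listed) in √10 steps. After 5 days, nuclei were stained in one fix-and-stain step and counted on 4× images, and relative viability is the nuclei count of treated wells over that of vehicle wells, given as the median of duplicate plates.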
# Sorafenib + Crizotinib = compound: CNC(=O)c1cc(Oc2ccc(NC(=O)Nc3ccc(Cl)c(C(F)(F)F)c3)cc2)ccn1 [Sorafenib] + C[C@@H](Oc1cc(-c2cnn(C3CCNCC3)c2)cnc1N)c1c(Cl)ccc(F)c1Cl [Crizotinib] (partner 1 µM)
# Method in brief: as §1
# Sorafenib + Trametinib = compound: CNC(=O)c1cc(Oc2ccc(NC(=O)Nc3ccc(Cl)c(C(F)(F)F)c3)cc2)ccn1 [Sorafenib] + CC(=O)Nc1cccc(-n2c(=O)n(C3CC3)c(=O)c3c(Nc4ccc(I)cc4F)n(C)c(=O)c(C)c32)c1 [Trametinib] (partner 0.02 µM)
# Method in brief: as §1
# Sorafenib + Foretinib = compound: CNC(=O)c1cc(Oc2ccc(NC(=O)Nc3ccc(Cl)c(C(F)(F)F)c3)cc2)ccn1 [Sorafenib] + COc1cc2c(Oc3ccc(NC(=O)C4(C(=O)Nc5ccc(F)cc5)CC4)cc3F)ccnc2cc1OCCCN1CCOCC1 [Foretinib] (partner 0.25 µM)
# Method in brief: as §1
# Sorafenib + Pictilisib = compound: CNC(=O)c1cc(Oc2ccc(NC(=O)Nc3ccc(Cl)c(C(F)(F)F)c3)cc2)ccn1 [Sorafenib] + CS(=O)(=O)N1CCN(Cc2cc3nc(-c4cccc5[nH]ncc45)nc(N4CCOCC4)c3s2)CC1 [Pictilisib] (partner 1 µM)
# Method in brief: as §1
Cell Line,relative viability (Sorafenib + Palbociclib; first compound 0.08 µM),relative viability (Sorafenib + Palbociclib; first compound 0.253 µM),relative viability (Sorafenib + Palbociclib; first compound 2.53 µM),relative viability (Sorafenib + Palbociclib; first compound 8 µM),relative viability (Sorafenib + Crizotinib; first compound 0.08 µM),relative viability (Sorafenib + Crizotinib; first compound 0.253 µM),relative viability (Sorafenib + Crizotinib; first compound 2.53 µM),relative viability (Sorafenib + Crizotinib; first compound 8 µM),relative viability (Sorafenib + Trametinib; first compound 0.08 µM),relative viability (Sorafenib + Trametinib; first compound 0.253 µM),relative viability (Sorafenib + Trametinib; first compound 2.53 µM),relative viability (Sorafenib + Trametinib; first compound 8 µM),relative viability (Sorafenib + Foretinib; first compound 0.08 µM),relative viability (Sorafenib + Foretinib; first compound 0.253 µM),relative viability (Sorafenib + Foretinib; first compound 2.53 µM),relative viability (Sorafenib + Foretinib; first compound 8 µM),relative viability (Sorafenib + Pictilisib; first compound 0.08 µM),relative viability (Sorafenib + Pictilisib; first compound 0.253 µM),relative viability (Sorafenib + Pictilisib; first compound 2.53 µM),relative viability (Sorafenib + Pictilisib; first compound 8 µM)
NCI-H838,0.25,0.223,0.286,0.158,0.931,0.946,0.991,0.903,0.606,0.507,0.498,0.291,1.12,1.04,1.28,0.685,0.516,0.412,0.77,0.38
NCI-H596,,,,,0.963,0.982,1.06,0.957,0.844,0.735,0.807,0.75,0.73,0.958,0.866,0.66,0.354,0.436,0.374,0.372
HOP-62,0.454,0.372,0.358,0.263,1.01,0.901,0.84,0.57,0.438,0.45,0.372,0.209,1.05,0.916,0.749,0.676,0.685,0.632,0.619,0.68
NCI-H2126,0.354,0.375,0.411,0.399,0.998,0.984,1.09,0.962,0.581,0.541,0.623,0.589,1.26,1.09,1.1,1.2,0.498,0.505,0.618,0.54
NCI-H2023,0.49,0.444,0.435,0.106,0.66,,0.713,0.357,0.686,0.539,0.459,0.112,1.18,0.795,0.972,0.591,0.301,0.269,0.263,0.181
EKVX,0.425,0.43,0.432,0.321,0.96,0.846,0.917,0.877,0.36,0.349,0.317,0.219,1.09,0.748,0.672,0.606,0.529,0.463,0.434,0.393
COR-L 105,0.452,0.365,0.411,0.384,0.874,0.73,0.839,0.855,0.51,0.472,0.432,0.378,1.32,0.982,1.18,1.03,0.413,0.487,0.476,0.329
NCI-H322M,0.524,0.589,0.525,0.63,0.945,0.848,0.894,0.859,0.769,0.52,0.455,0.481,1.19,0.994,1.14,1.05,,0.593,0.62,0.695
NCI-H1793,0.354,0.376,0.465,0.411,,,,,0.398,0.429,0.325,0.253,0.76,0.853,1.12,0.798,0.313,0.333,0.256,0.195
PC-14,0.62,0.512,0.518,0.158,0.935,1,0.967,0.533,0.883,0.694,0.567,0.158,1.02,0.945,1.11,0.913,0.748,0.542,0.625,0.344
NCI-H358,0.137,0.127,0.182,0.128,0.56,0.72,0.713,0.292,0.14,0.143,0.116,0.107,0.786,0.723,,0.489,0.364,0.393,0.469,0.184
LXF-289,0.612,0.618,0.74,0.616,0.816,0.814,0.824,0.757,0.638,,0.617,0.513,,0.992,1.06,0.943,0.834,0.727,0.828,0.779
HCC-366,0.393,0.424,0.323,0.353,0.705,0.464,0.549,0.356,0.403,0.436,0.331,0.226,0.927,0.957,0.937,0.94,0.208,0.118,0.138,0.151
HARA,0.295,0.286,0.303,0.339,1.15,1.02,1.03,0.931,0.626,,0.233,0.228,0.967,0.916,0.898,0.889,0.373,0.341,0.411,0.327
NCI-H2087,0.245,0.209,0.15,0.159,0.83,0.746,0.784,0.308,0.19,0.233,0.199,0.15,1.36,0.977,0.819,0.632,1.02,0.787,0.609,0.349
NCI-H520,0.192,0.208,0.225,0.172,0.912,0.695,0.67,0.581,0.934,0.403,0.518,0.217,0.71,0.71,0.736,0.406,0.337,0.322,0.307,0.188
NCI-H441,0.222,0.245,0.252,0.164,0.727,0.64,0.532,0.473,0.564,0.408,0.457,0.27,1.11,,0.957,0.782,0.524,0.476,0.409,0.445

Cell Line,relative viability (Sorafenib + Palbociclib; first compound 0.08 µM),relative viability (Sorafenib + Palbociclib; first compound 0.253 µM),relative viability (Sorafenib + Palbociclib; first compound 2.53 µM),relative viability (Sorafenib + Palbociclib; first compound 8 µM),relative viability (Sorafenib + Crizotinib; first compound 0.08 µM),relative viability (Sorafenib + Crizotinib; first compound 0.253 µM),relative viability (Sorafenib + Crizotinib; first compound 2.53 µM),relative viability (Sorafenib + Crizotinib; first compound 8 µM),relative viability (Sorafenib + Trametinib; first compound 0.08 µM),relative viability (Sorafenib + Trametinib; first compound 0.253 µM),relative viability (Sorafenib + Trametinib; first compound 2.53 µM),relative viability (Sorafenib + Trametinib; first compound 8 µM),relative viability (Sorafenib + Foretinib; first compound 0.08 µM),relative viability (Sorafenib + Foretinib; first compound 0.253 µM),relative viability (Sorafenib + Foretinib; first compound 2.53 µM),relative viability (Sorafenib + Foretinib; first compound 8 µM),relative viability (Sorafenib + Pictilisib; first compound 0.08 µM),relative viability (Sorafenib + Pictilisib; first compound 0.253 µM),relative viability (Sorafenib + Pictilisib; first compound 2.53 µM),relative viability (Sorafenib + Pictilisib; first compound 8 µM)
NCI-H1651,0.556,0.52,0.533,0.516,0.863,0.866,0.845,0.877,0.853,0.791,0.835,0.74,0.923,,0.787,0.515,0.688,0.517,0.555,0.445
NCI-H1755,0.482,,0.461,,0.917,0.817,0.874,0.615,0.8,0.761,0.71,0.557,0.926,0.863,0.921,0.729,0.466,0.422,0.417,0.263
PC-3 [JPC-3],0.522,0.552,0.576,0.606,0.978,0.957,0.985,,,0.712,0.773,0.718,1.07,1.05,0.985,0.882,0.813,0.659,0.752,0.679
UMC-11,0.284,0.355,0.334,0.188,0.558,0.578,0.541,0.204,0.854,0.743,0.639,0.612,0.968,1.02,0.941,0.58,0.85,0.78,0.759,0.523
ABC-1,0.712,0.682,0.854,0.725,1.4,1.07,,1.04,,,,,1.06,1.11,1.38,0.392,0.78,0.713,1.02,0.332
SW 1573,0.39,0.363,0.417,0.09,0.984,0.86,0.89,0.753,0.549,0.608,0.337,0.131,1.09,0.791,0.995,0.777,0.464,0.465,0.402,0.257
SK-LU-1,0.474,0.372,0.362,0.326,0.956,,0.79,0.309,0.726,0.44,0.302,0.234,0.857,0.632,0.761,0.692,0.61,0.439,0.579,0.412
COR-L23,0.301,0.288,0.319,0.264,0.902,0.609,0.657,0.551,0.645,0.433,0.312,0.232,1.13,0.982,0.937,0.765,0.952,0.881,0.745,0.676
NCI-H1563,,,,,0.893,0.993,0.889,0.674,,,,,0.992,0.929,0.943,0.577,0.653,0.523,0.614,0.665
NCI-H1944,0.339,0.346,0.371,0.306,1.12,1,1.08,0.912,0.384,0.436,0.367,0.253,0.92,0.97,0.946,0.747,0.368,0.332,0.365,0.274
NCI-H1734,0.376,0.329,0.37,0.275,0.746,0.625,0.66,0.426,0.71,0.646,0.577,0.324,1.05,0.769,0.682,0.41,0.465,0.469,0.471,0.248
NCI-H1666,0.602,0.566,0.634,0.717,1.01,0.899,,0.487,0.954,0.764,0.762,0.639,0.976,0.93,,0.889,0.497,0.407,0.451,0.331
NCI-H1395,0.696,,0.613,0.644,,,,,1.25,,1.04,0.846,1.08,0.931,1.04,0.854,0.603,0.636,0.642,0.39
HCC-44,0.96,0.771,0.858,0.834,0.811,0.735,0.725,0.565,1.07,1.04,1.01,,,,,,0.628,0.693,0.673,0.549
NCI-H1703,,,,,0.588,0.209,0.141,0.157,,,,,0.384,0.283,0.298,0.278,0.243,0.21,0.197,0.177
NCI-H1792,0.722,0.684,0.646,0.654,1.05,0.973,1,0.87,0.527,0.461,0.421,0.177,,,,,0.34,0.23,0.278,0.39
SW 900,0.566,0.568,0.498,0.63,,,,,,0.792,0.934,0.719,1.2,0.888,0.782,0.604,,,,

# — the supplement of paper PMC10307832
